Data on 106 molecules can be found in the RepoRT retention time repository.

SMILES strings stand for the structures.

A short description of this data set: Agilent ZORBAX 300 SB-C18, 150 × 1 mm, 3.5 µm; A: water + 0.01% heptafluorobutyric acid; B: acetonitrile + 0.01% heptafluorobutyric acid; gradient (min/%B) 0/0 100/90. Conditions: stereoisomer not certain.
Turning to `c1cc(CCc2ccncc2)ccn1`, the LC retention time is 7.28 min.

For the molecule `O=C1C=C(O)C(=O)C1c1ccccc1` (stereo unspecified), the LC retention time stood at 9.39 min. On to `Cc1ccnc2c1ccc1cccnc12`, for which the LC retention time is 8.43 min. To `Cc1cc(-c2noc(C(c3ccccc3)c3ccccc3)n2)c2ccccc2n1` belongs 16.9 min. To `COc1ccc(C(CNC(=O)c2n[nH]c(=O)c3ccccc23)Cc2ccccc2)cc1OC` (stereo unspecified) belongs 13.3 min; to `Cc1cccc(NC(=S)NNC(=O)c2cccc(C)c2)c1`, 12.3 min. To `COc1ccc(-c2cnc3ccccc3n2)cc1` belongs 14.7 min. For the molecule `C#CC(C)(C)NC(=O)CCCCCN1C(=O)c2ccccc2C1=O`, the LC retention time was 12.2 min. To `Cc1cc(C)c2c(=O)n(CC(=O)NCCC(C)C)c(=O)n(-c3ccccc3)c2n1` belongs 14.4 min; to `CCOC(=O)C=CC(=O)NNC(=O)CCC(=O)Nc1ccc(C)cc1C`, 10.1 min. To `CN(C)CCCNCCCN(C)C` belongs 7.49 min; to `c1ccc(CNCCNc2ccccc2)cc1`, 9.6 min. To `COC(=O)c1ccc2ccccc2n1` belongs 10.4 min; to `C(=Cc1ccco1)C=NN1CCN(Cc2cccc3ccccc23)CC1`, 11.2 min. Take `COc1ccccc1OCCN1CCNCC1`: the LC retention time turned out to be 8.16 min.

As for `CC(=O)CNC(C)(C)C(C)=O`, the LC retention time is 5.92 min. To `COc1c(C)cccc1C(=O)NN` belongs 8.52 min; to `CCCC(=O)Nc1ccc(N)cc1`, 7.75 min. For `CN(C)c1ccc(N=C2C=CC(=Nc3ccc(N(C)C)cc3)C=C2)cc1`, the LC retention time was found to be 9.47 min. Turning to `CCCCCCCCCCCC(N)=O`, the LC retention time was 16.7 min. To `COc1cc(CNC(=O)Nc2ccccc2)cc(OC)c1OC` belongs 11.3 min; to `COC(=O)c1ccc(Cn2c(=O)n(C)c(=O)c3ccccc32)cc1`, 13.1 min. For `COc1cc(N2C=C3N=C(c4ccccc4)NN3C=N2)cc(OC)c1OC`, the LC retention time was 12.1 min. As to `CN(CCCN)CCCN`, the LC retention time worked out at 7.45 min.

Turning to `c1cncc(CNCc2cccnc2)c1`, the LC retention time is 7.11 min. To `COc1cc(N)c(N2CCOCC2)cc1OC` belongs 7.99 min; to `c1cnc2nc[nH]c2c1`, 6.03 min; to `Nc1ccc(Cc2ccncc2)cc1`, 8.71 min. Turning to `c1ccc2ncncc2c1`, the LC retention time was found to be 7.73 min.

With `Nc1ccccc1C(=O)N1CCNC(=O)C1`, the LC retention time stood at 6.83 min.

For `COc1cc(CCN)cc(OC)c1OC`, the LC retention time was 8.22 min. To `O=Cc1c(-c2ccccc2)c(C=O)n2ccccc12` belongs 13.9 min; to `Cc1ccc(C=C2C(=O)c3ccccc3C2=O)o1`, 15.1 min. `c1ccc2c3c([nH]c2c1)CCCC3`: the LC retention time is 15.7 min.

With `Cc1cc(C)nc(Nc2ccccc2C)n1`, the LC retention time was 10.7 min. To `CC(C)(C)C(=N)C(C)(C)C` belongs 8.06 min; to `c1cncc(CNc2c3c(nc4ccccc24)CCC3)c1`, 8.56 min. To `CCOc1cc(NC(C)=O)ccc1C(=O)NN=Cc1cccc(Oc2ccccc2)c1` belongs 14.3 min. For `CCCCc1c(O)n(-c2ccc(O)cc2)n(-c2ccccc2)c1=O`, the LC retention time came to 12.8 min. In the case of `Cc1cc(C)cc(-c2nnc(-c3ccc(-c4ccccc4)cc3)o2)c1`, the LC retention time was found to be 20.5 min.

Consider `COc1cccc2c1NC(CCc1ccccc1N)CC2` (stereo unspecified), for which the LC retention time stood at 12.1 min. To `NNC(=O)CCCO` belongs 2.37 min; to `c1ccc2c(c1)Cc1cc3ccccc3nc1-2`, 11.4 min. To `CCOc1ccccc1NC(=O)c1cc(=O)[nH]c(=O)[nH]1` belongs 9.16 min.

Consider `COc1cc(C=CC(=O)c2ccc(C)cc2)cc(OC)c1OC`, for which the LC retention time came to 15.9 min. Turning to `Nc1ccc2nccnc2c1`, the LC retention time is 7.1 min.

As to `NCCc1cccs1`, the LC retention time was found to be 7.47 min.

Consider `Nc1ncc2c(n1)CCC2`, for which the LC retention time came out at 6.96 min. To `OC(CCN1CCCC1)(c1ccccc1)C1CCCCC1` (stereo unspecified) belongs 11.5 min. For `COc1ccc(-c2cc(=O)c3c(ccc4ccccc43)o2)cc1`, the LC retention time was 17 min.

`CC(C)c1cc[nH]c1-c1ccccc1`: the LC retention time turned out to be 16.3 min. To `c1cc(CCCc2ccncc2)ccn1` belongs 7.37 min; to `c1ccc(CN(CC2=NCCN2)c2ccccc2)cc1`, 10.1 min; to `CCCCNCCCC`, 8.38 min.

Take `CCc1ccc(C(=O)CC(Nc2ccccc2)c2ccccc2)cc1` (stereo unspecified): the LC retention time was determined as 18.4 min. Consider `Cc1cc(C=NNC(N)=S)c(C)n1-c1ccccc1`, for which the LC retention time was 12.7 min. To `c1ccc(-c2ccc3ccccc3n2)nc1` belongs 11.3 min; to `Cc1cccnc1CN1CCN(Cc2ncccc2C)CC1`, 7.69 min; to `Cc1ccc2cc(C)c(NCc3cccnc3)nc2c1`, 8.55 min.

As to `CC(C)c1cccc(C(C)C)c1NC(=O)COC(=O)CNC(=O)c1ccc(C(C)(C)C)cc1`, the LC retention time is 17.6 min. To `Cc1cn(COCc2ccccc2)c(=O)[nH]c1=O` belongs 9.82 min.

Take `CN(c1nc(-c2ccc(C(C)(C)C)cc2)nc2ccccc12)C1CCCCC1`: the LC retention time was found to be 15.8 min. To `CNCCC=C1c2ccccc2CCc2ccccc21` belongs 11.7 min; to `Cc1ccc(C(=O)NC(=Cc2ccc(C(C)C)cc2)C(=O)NCc2cccnc2)cc1`, 11.9 min. In the case of `Cc1cccc(NC(=O)C(Cc2c[nH]c3ccccc23)NC(=O)C(c2ccccc2)c2ccccc2)c1` (stereo unspecified), the LC retention time amounted to 16.8 min.

As to `O=C(O)CC(CC(=O)O)c1ccccn1`, the LC retention time is 5.88 min.

Regarding `CC(C)(C)c1ccc(-c2nnnn2-c2ccccc2)cc1`, the LC retention time stood at 16.8 min. To `Nc1ncnc2ccccc12` belongs 6.84 min; to `CC(C)=C(NC(=O)c1ccccc1)C(=O)NCCc1c(C)[nH]c2ccccc12`, 12.3 min. `CCOC(=O)C(Cc1ccccc1)n1cccc1` (stereo unspecified): the LC retention time was determined as 15.9 min.

On to `CC1(C)CC(=NNC(=O)C(=O)NN=C2CC(C)(C)NC(C)(C)C2)CC(C)(C)N1`, for which the LC retention time came out at 7.32 min.

For `CCOc1ccc(C(=O)NNC(=O)COc2ccc(C(C)CC)cc2)cc1` (stereo unspecified), the LC retention time turned out to be 15 min.

Take `Cc1c(N)cccc1N`: the LC retention time was determined as 6.51 min. Turning to `Cc1nccnc1C`, the LC retention time stood at 7.59 min. To `CC(C)(CO)Nc1c[nH]c(=O)[nH]c1=O` belongs 6.01 min. To `CCCCCCC[n+]1ccc(-c2cc[n+](CCCCCCC)cc2)cc1` belongs 10.5 min; to `COc1ccc(-c2cc(=O)c3cc(C)cc(C)c3o2)cc1OC`, 15.2 min. To `c1ccc(CN(c2ccccn2)c2ccccn2)cc1` belongs 11 min; to `CC1(C)CC(NC(=S)Nc2ccccc2)CC(C)(C)N1`, 9 min; to `CNCCCN1c2ccccc2CCc2ccccc21`, 11.5 min.

Regarding `CN(C)CC(C)(C)CO`, the LC retention time was 6.43 min. To `CC(=O)Nc1coc2ccccc12` belongs 10.4 min; to `Cc1ccc(C=CC(=O)c2ccccc2O)cc1`, 16.1 min. To `Cc1[nH]c(=S)[nH]c1-c1ccccc1` belongs 9.06 min; to `Cc1ccc(-c2cc(C(=O)O)c3ccccc3n2)cc1C`, 13.3 min; to `COc1cccc(OCCN)c1`, 8.13 min. To `Cc1nc2ccccc2nc1CN1C(=O)C2CC=CCC2C1=O` (stereo unspecified) belongs 11.9 min; to `Cc1ccc(Nc2ccccc2)cc1`, 16.5 min; to `O=C1CCCC(O)=C1C1(O)C(=O)c2ccccc2C1=O`, 8.21 min. Take `c1cn[nH]c1`: the LC retention time was 6.84 min. To `CC(C)(C)NCC(O)COc1cccc2c1CC(O)C(O)C2` (stereo unspecified) belongs 8.31 min; to `CC1(C)CC(=O)c2cc3c(nc2C1)CC(C)(C)CC3=O`, 13.2 min; to `c1cncc(-c2nc3ccccc3[nH]2)c1`, 8.19 min.

On to `CC(C)(C)c1ccc(C(=O)N2CCN(Cc3ccccc3)CC2)cc1`, for which the LC retention time was found to be 11.1 min. On to `COc1cccc(C(=O)N(c2ccccc2)C2CC(C)N(C(C)=O)c3ccccc32)c1` (stereo unspecified), for which the LC retention time stood at 14.3 min. For `CCCCCCCCCCCCCC(N)=O`, the LC retention time is 19.7 min.

Regarding `Cc1cc(C=O)c(C)n1C(C)C`, the LC retention time was 11.1 min. To `CCCCN1CNC(=S)N(CCc2ccccc2)C1` belongs 13.8 min; to `COc1cccc(OC)c1C(=O)C=Cc1ccccc1`, 14.7 min.

In the case of `COC(=O)c1cccc(N=C2N=C(N)c3ccccc32)c1`, the LC retention time amounted to 9.59 min. To `NC(=O)NNC(=S)Nc1ccccc1` belongs 7.03 min; to `CC(c1ccccc1)C1Nc2ccccc2C(=O)N1c1ccccc1` (stereo unspecified), 15 min; to `COc1ccccc1NC(=O)C(c1ccccc1)c1ccccc1`, 16.6 min. As for `COc1ccc2cnn(-c3ccccc3)c(=O)c2c1OC`, the LC retention time was 11.5 min. For the molecule `COc1ccc(CNCc2ccc(C(C)C)cc2)cc1`, the LC retention time was determined as 11.5 min. To `Nc1ccncc1` belongs 5.68 min.
